Results: EP2062893A1, “Fused imidazoles for cancer treatment” (Bayer Schering Pharma AG, priority 2007, dated 2009)
pIC50: −log10 of the molar value.

What was measured:
Assay type in all cases: cell-based
phosphorylated GSK3 = test: Cellular pGSK3 assay (phospho-GSK3 Ser9 sandwich ELISA); conditions: Homo sapiens; MCF7 cells, 48h incubation, IC50 of pGSK3 inhibition
Procedure: In order to study the cellular activity of the compounds according to the present invention, an ELISA-based assay has been established for the phosphorylated protein glycogen synthetase kinase 3 (GSK3). The assay is based on a solid phase sandwich ELISA that detects endogenous levels of phosphorylated GSK3 using a phospho-GSK3 (Ser9) specific antibody (BioSource International, Inc.; Catalog #KHO0461). After incubation with cell lysates, the coated antibody captures the phosphorylated GSK3 protein. Following extensive washing, GSK3 polyclonal antibody is added to detect the captured phospho-GSK3 protein. Secondary antibody (anti-rabbit IgG-HRP) is then used to recognize the bound detection antibody. After the second incubation and washing to remove all the excess anti-rabbit IgG-HRP, a substrate solution is added, which is acted upon by the bound enzyme to produce color. The intensity of this colored product is directly proportional to the concentration of GSK-3β [pS9] present in the original specimen. MCF7 cells (ATCC HTB-22) were seeded into 96 well fate bottom plates at a density of 10000 cells/well. After 24 h 1 µl each of the compound dilutions (test compounds were dissolved as 10 mM solutions in dimethylsulfoxide (DMSO) and subsequently diluted) were added into each well of the 96 well plates and incubated for 48h at 37°C in a humidified athmosphere containing 5% CO2. Cells were harvested and lysed in cell extraction buffer (10 mM Tris, pH 7.4, 100 mM NaCl, 1 mM EDTA, 1 mM EGTA, 1 mM NaF, 20 mM Na4P2O7, 2 mM Na3VO4, 1% Triton X-100, 10vol% glycerol, 0.1vol% SDS, 0.5vol% deoxycholate, 1 mM phenylmethylsulfonylfluorid (PMSF)). The lysate were centrifuged for 10 min. at 4°C and the supernatant were transferred to a new tube. 50 µl of sample diluent (standard diluent buffer, Biosource) were added and 100 µl of cell lysate transferred into the tube and vortexed. 100 µl of each diluted cell lysate were added to the appropriate ELISA well plate and incubated for 3h at room temperature. The plates were washed 4 times with 1x wash buffer (Biosource). 50 µl of detection antibody (GSK3 (Ser9) detection antibody; BioSource) were added to each well and incubated for 30 min. at room temperature. The washing procedure was repeated between each step. 100µl of HRP-linked secondary antibody (anti-mouse IgG HRP-linked antibody) were added to each well and incubated for 30 min. at room temperature. 100µl of TMB substrate (0.05vol% 3,3',5,5' tetramethylbenzidine, 0.1vol% hydrogen peroxide, complex polypeptides in a buffered solution; Biosource) were added to each well and incubated for 30 min. at room temperature. Finally 100 µl of Stop solution (0.05vol% α and β unsaturated carbonyl compound) were added to each well and the plate were shaked gently for a few seconds. The absorbance was measured at λ = 450 nm (Wallac Victor2; Perkin Elmer, USA) within 30 min. after adding the stop solution. The analysis of the data was performed using a statistical program (Excel; Microsoft, USA) and the IC50 of pGSK3 inhibition was determined.

OvCAR3 cells = test: Cellular proliferation / Cytotoxicity assay (Alamar Blue / Resazurin cell viability); conditions: Homo sapiens, OVCAR-3, 48h incubation, read-out: Anti-proliferative / Cytotoxic activity (OvCAR3 cells)
Procedure: Wells containing untreated control cells were filled with 200 µl DMEM (Dulbecco's Modified Eagle Medium) containing 0.5vol% v:v DMSO. The cells are then incubated with the substances for 48h at 37°C in a humidified atmosphere containing 5vol% CO2. To determine the viability of the cells, 20 µl of a Resazurin solution (90mg / I) are added. […] Viabilities are expressed as % values.

[1] = test system: phosphorylated Akt protein; test: Cellular PI3K / Akt pathway assay (phospho-Akt Ser473 sandwich ELISA); conditions: Homo sapiens; MCF7 cells, ß-Heregulin (20ng/ml) stimulation, 48h incubation
Procedure: In order to study the cellular activity of the compounds according to the present invention, an Enzyme Linked Immunosorbent Assay (ELISA)-based assay has been used specific phospho-AKT. The assay is based on a Sandwich ELISA kit (PathScan™ Phospho-Akt1 (Ser473); Cell Signaling, USA; #7160). The ELISA Kit detects endogenous levels of phosphorylated Akt protein. A phospho-Akt (Ser473) antibody (Cell Signaling, USA; #9271) has been coated onto the microwells. After incubation with cell lysates, the coated antibody captures the phosphorylated Akt protein. Following extensive washing, Akt1 monoclonal antibody (Cell Signaling, USA; #2967) is added to detect the captured phospho-Akt1 protein. HRP-linked anti-mouse antibody (HRP: horseradish peroxidase; Cell Signaling, USA; #7076) is then used to recognize the bound detection antibody. HRP substrate (= 3,3',5,5'-tetramethylbenzidine (TMB); Cell Signaling, USA; #7160) is added to develop colour. The magnitude of optical density for this developed color is proportional to the quantity of phosphorylated Akt protein. MCF7 cells (ATCC HTB-22) are seeded into 96 well fate bottom plates at a density of 10000 cells/well. 24 hours after seeding, the cells are serum starved using low-serum medium (IMEM media including 0,1% charcoal treated FCS (FCS: fetal calf serum)). […] To stimulate Akt phosphorylation, ß-Heregulin (20ng/ml ß-HRG) is added in parallel to the compounds. Wells containing unstimulated control cells (no ß-Heregulin stimulation) are incubated with or without the diluted compound. Wells containing untreated control cells (no compound) are filled with medium containing 0.5% v:v DMSO and are or are not stimulated with ß-Heregulin. Cells are harvested and lysed with brief sonification in 1x cell lysis buffer (20mM Tris (pH7.5), 150 mM NaCl, 1 mM ethylene diaminetetraacetate (EDTA), 1 mM ethylene glycolbis(2-aminoethyl)-N,N,N',N'-tetraacetic acid (EGTA), 1vol% Triton X-100, 2.5mM sodium pyrophosphate, 1 mM β-glycerolphosphate, 1 mM Na3VO4, 1µg/ml leupeptin). The lysate is centrifuged for 10 min. at 4°C and the supernatant is transferred to a new tube. 100 µl of sample diluent (0.1vol% Tween-20, 0.1vol% sodium azide in phosphate buffered saline (PBS)) are added to a microcentrifuge tube and 100 µl of cell lysate are transferred into the tube and vortexed. 100 µl of each diluted cell lysate are added to the appropriate ELISA well, and incubated overnight at 4°C. The plates are washed 4 times with 1x wash buffer (1vol% tween-20, 0.33vol% thymol, in PBS). Next 100 µl of detection antibody (Akt1 (2H10) monoclonal detection antibody; Cell Signaling, USA; #2967) are added to each well and incubation continued for 1h at 37°C. The washing procedure is repeated between each step. 100µl of secondary antibody (anti-mouse IgG HRP-linked antibody; Cell Signaling, USA; #7076) are added to each well and incubated for 30 min. at 37°C. Than, 100µl of TMB substrate (0.05% 3,3',5,5' tetramethylbenzidine, 0.1 % hydrogen peroxide, complex polypeptides in a buffered solution; Cell Signaling, USA; #7160) are added to each well and incubated for 30 min. at 25°C. Finally 100 µl of STOP solution (0.05vol% α and β unsaturated carbonyl compound) are added to each well and the plate are shaked gently. The absorbance is measured at λ =450 nm (Wallac Victor2; Perkin Elmer, USA) within 30 min. after adding the STOP solution. The analysis of the data is performed using a statistical program (Excel; Microsoft, USA). Preferred compounds show an inhibitory activity towards Akt phosphorylation below 10µM.

pIC50 (phosphorylated GSK3) | pIC50 [1] | Compound | pIC50 (OvCAR3 cells)
5.00 to 6.00 | 5.00 to 6.00 | Fc1ccc(-c2c(-c3ccc(CN4CCC(c5n[nH]c(-c6ccccn6)n5)CC4)cc3)nc3ncccn23)cc1 [Example 18, 3-(4-fluorophenyl)-2-(4-{[4-(5-pyridin-2-yl-1,2,4-triazol-3-yl)piperidin-1-yl]methyl}phenyl)imidazo[1,2-a]pyrimidine] | > 5.00
> 6.00 | > 6.00 | Cc1ccn2c(-c3ccccc3)c(-c3ccc(CN4CCC(c5n[nH]c(-c6ccccn6)n5)CC4)cc3)nc2n1 [Example 19, 7-methyl-3-phenyl-2-(4-{[4-(5-pyridin-2-yl-1,2,4-triazol-3-yl)piperidin-1-yl]methyl}phenyl)imidazo[1,2-a]pyrimidine] | > 5.00
< 5.00 | < 5.00 | COc1ccc(-c2c(-c3ccc(CN4CCC(c5n[nH]c(-c6ccccn6)n5)CC4)cc3)nc3ncccn23)cc1 [Example 20, 3-(4-methoxyphenyl)-2-(4-{[4-(5-pyridin-2-yl-1,2,4-triazol-3-yl)piperidin-1-yl]methyl}phenyl)imidazo[1,2-a]pyrimidine] | < 5.00
5.00 to 6.00 | > 6.00 | Clc1cnc2nc(-c3ccc(CN4CCC(c5n[nH]c(-c6ccccn6)n5)CC4)cc3)c(-c3ccccc3)n2c1 [Example 21, 6-chloro-3-phenyl-2-(4-{[4-(5-pyridin-2-yl-1,2,4-triazol-3-yl)piperidin-1-yl]methyl}phenyl)imidazo[1,2-a]pyrimidine] | > 5.00
5.00 to 6.00 | > 6.00 | Fc1ccc2nc(-c3ccc(CN4CCC(c5n[nH]c(-c6ccccn6)n5)CC4)cc3)c(-c3ccccc3)n2c1 [Example 22, 6-fluoro-3-phenyl-2-(4-{[4-(5-pyridin-2-yl-1,2,4-triazol-3-yl)piperidin-1-yl]methyl}phenyl)imidazo[1,2-a]pyridine] | > 5.00
5.00 to 6.00 | > 6.00 | Ic1cnc2nc(-c3ccc(CN4CCC(c5n[nH]c(-c6ccccn6)n5)CC4)cc3)c(-c3ccccc3)n2c1 [Example 23, 6-iodo-3-phenyl-2-(4-{[4-(5-pyridin-2-yl-1,2,4-triazol-3-yl)piperidin-1-yl]methyl}phenyl)imidazo[1,2-a]pyrimidine] | > 5.00
> 6.00 | > 6.00 | COc1ccn2c(-c3ccccc3)c(-c3ccc(CN4CCC(c5n[nH]c(-c6ccccn6)n5)CC4)cc3)nc2n1 [Example 24, 7-methoxy-3-phenyl-2-(4-{[4-(5-pyridin-2-yl-1,2,4-triazol-3-yl)piperidin-1-yl]methyl}phenyl)imidazo[1,2-a]pyrimidine] | > 5.00
> 6.00 | > 6.00 | Brc1cccn2c(-c3ccccc3)c(-c3ccc(CN4CCC(c5n[nH]c(-c6ccccn6)n5)CC4)cc3)nc12 [Example 25, 8-bromo-3-phenyl-2-(4-{[4-(5-pyridin-2-yl-1,2,4-triazol-3-yl)piperidin-1-yl]methyl}phenyl)imidazo[1,2-a]pyridine] | > 5.00
5.00 to 6.00 | > 6.00 | COc1nccn2c(-c3ccccc3)c(-c3ccc(CN4CCC(c5n[nH]c(-c6ccccn6)n5)CC4)cc3)nc12 [Example 27, 8-methoxy-3-phenyl-2-(4-{[4-(5-pyridin-2-yl-1,2,4-triazol-3-yl)piperidin-1-yl]methyl}phenyl)imidazo[1,2-a]pyrazine] | > 5.00
> 6.00 | > 6.00 | N#Cc1ccn2c(-c3ccccc3)c(-c3ccc(CN4CCC(c5n[nH]c(-c6ccccn6)n5)CC4)cc3)nc2c1 [Example 29, 3-phenyl-2-(4-{[4-(5-pyridin-2-yl-1,2,4-triazol-3-yl)piperidin-1-yl]methyl}phenyl)imidazo[1,2-a]pyridine-7-carbonitrile] | > 5.00
> 6.00 | 5.00 to 6.00 | c1ccc(-c2c(-c3ccc(CN4CCC(c5cc(-c6ccccn6)n[nH]5)CC4)cc3)nc3ncccn23)cc1 [Example 30, 3-phenyl-2-(4-{[4-(3-pyridin-2-yl-pyrazol-5-yl)piperidin-1-yl]methyl}phenyl)imidazo[1,2-a]pyrimidine] | > 5.00
